Data on three compounds can be found in US20250034182A1, “PHOSPHOLIPID COMPOUNDS AND METHODS OF MAKING AND USING THE SAME” (priority 2021, published 2025).

Type in all cases: cell-based
The test system of series [1] is Respiratory syncytial virus recombinant with luciferase (RSV-Luc5) in NHBE cells. Description: NHBE RSV-Luc5 384-well assay (EC50 RSVFLUC NHBE-384, Example U). As to conditions: human respiratory syncytial virus, 72 h, read-out: RSV FLuc NHBE 384 EC50 (v2) (nM) (per Ex. U). The method, then: Normal Human Bronchial Epithelial (NHBE) cells were purchased from Lonza (Walkersville, MD Cat #CC2540) and maintained in BEGM Bronchial Epithelial Cell (Growth Medium BulletKit (Lonza CC-3170).
Cells were thawed, expanded, and were used for experiments at passage 2. Respiratory syncytial virus recombinant with luciferase (RSV-Luc5) (≥1×10^7 Infectious Units/ml (IU/ml) determined by TCID50) was purchased from Microbiologics (Saint Cloud, MN). Viral replication was determined in NHBE cells in the following manner.
(§1) Compounds are prepared in 100% DMSO in 384-well polypropylene plates (Greiner, Monroe, NC, Cat #784201) with 8 compounds per plate in grouped replicates of 4 at 10 serially diluted concentrations (1:3). The serially diluted compounds were transferred to low dead volume Echo plates (Labcyte, Sunnyvale, CA, Cat #LP-0200).
The test compounds were spotted to 384-well assay plates (Greiner, Monroe, NC, Cat #781091) at 200 nL per well. NHBE cells were harvested and suspended in BEGM Bronchial Epithelial Cell Growth Medium BulletKit and seeded to the pre-spotted assay plates at 5,000 cells per well in 30 μL. RSV-Luc5 virus was diluted in BEGM Bronchial Epithelial Cell Growth Medium BulletKit at 500,000 Infectious Units (IU) per mL and 10 μL per well was added to the assay plates containing cells and compounds, for an MOI of 1. The assay plates were incubated for 3 days at 37° C. and 5% CO2. At the end of incubation, One-Glo reagent (Promega, Madison, WI, Cat #E6120) was prepared. The assay plates and One-Glo reagent were equilibrated to room temperature for at least 15 minutes. 40 μL per well of One-Glo reagent was added and the plates were incubated at room temperature for 15 minutes before reading the luminescence signal on an EnVision multimode plate reader (Perkin Elmer, Waltham, MA). Remdesivir was used as positive control and DMSO was used as negative control. Values were normalized to the positive and negative controls (as 0% and 100% replication, respectively) and data was fitted using non-linear regression analysis by Gilead's dose response tool. The EC50 value for each compound was defined as the concentration reducing the viral replication by 50%.

For series [2], the system named is Respiratory syncytial virus recombinant with luciferase (RSV-Luc5) in HEp-2 cells. Description: HEp-2 RSV-Luc5 384-well assay (EC50 RSVFLUC Hep2-384 v2, Example V). As to conditions: human respiratory syncytial virus, HEp-2, 72 h, read-out: RSV Hep-2 FLuc EC50 (v2) (nM) (per Ex. V).
Source text: HEp-2 cell line was purchased from ATCC (Manassas, VA Cat #CCL-23) and maintained in Dulbecco's […] (DMEM) (Corning, New York, NY, Cat #15-018CM) supplemented with 10% fetal bovine serum (FBS) (Hyclone, Logan, UT, Cat #SH30071-03) and 1× Penicillin-Streptonycin-L-Glutamine (Corning, New York, NY, Cat #30-009-CI). Cells were passaged 2 times per week to maintain sub-confluent densities and were used for experiments at passage 5-20. Respiratory syncytial virus recombinant with luciferase (RSV-Luc5) (≥1×107 TCID50/ml) was purchased from Microbiologics (Saint Cloud, MN). Viral replication was determined in HEp-2 cells in the following manner.
as §1
The test compounds were spotted to 384-well assay plates (Greiner, Monroe, NC, Cat #781091) at 200 nL per well. HEp-2 cells were harvested and suspended in DMEM (supplemented with 10% FBS and 1× Penicillin-Streptomycin-L-Glutamine) and seeded to the pre-spotted assay plates at 4,000 cells per well in 30 μL. RSV-Luc5 viruses were diluted in DMEM (supplemented with 10% FBS and 1× Penicillin-Streptomycin-L-Glucamine) at 200,000 Infectious Units (IU) per mL and 10 μL per well was added to the assay plates containing cells and compounds, for an MOI=0.5. The assay plates were incubated for 3 days at 37° C. and 5% CO2. At the end of incubation, One-Glo reagent (Promega, Madison, WI, Cat #E6120) was prepared. The assay plates and One-Glo reagent were equilibrated to room temperature for at least 15 minutes. 40 μL per well of One-Glo reagent was added and the plates were incubated at room temp for 15 minutes before reading the luminescence signal on an EnVision multimode plate reader (Perkin Elmer, Waltham, MA). Remdesivir was used as positive control and DMSO was used as negative control. Values were normalized to the positive and negative controls (as 0% and 100% replication, respectively) and data was fitted using non-linear regression analysis by Gilead's dose response tool. The EC50 value for each compound was then determined as the concentration reducing the viral replication by 50%.

A short description of series [3]: RSV NHBE CC50 384 V2 (per Ex. U). The settings on record: human.
Series [4] in a line: RSV HEP2-CC50-384-V2 (per Ex. V). As to conditions: human.

Molecules are shown by their SMILES.

Broadly, the EC50 is the concentration that produces a half-maximal response. Usually CC50 stands for the concentration at which the toxic effect on the cells reaches its halfway point. As to `CCCCCCCCCCCCCCCCCCOC[C@](C)(COP(=O)(O)OC[C@@]1(C#N)O[C@@H](c2ccc3c(N)ncnn23)[C@H](O)[C@@H]1O)OCc1cc(F)cc(C#N)c1` [Compound 94, ((2R,3S,4R,5S)-5-(4-aminopyrrolo[2,1-f][1,2,4]triazin-7-yl)-2-cyano-3,4-dihydroxytetrahydrofuran-2-yl)methyl ((R)-2-((3-cyano-5-fluorobenzyl)oxy)-2-methyl-3-(octadecyloxy)propyl) hydrogen phosphate], the EC50 is 59 nM in series [1] and 339 nM in series [2]. Besides, the CC50 at 3 days in series [3] is 16000 nM; in series [4] it was greater than 50000 nM.
Take `CCCCCCCCCCCCCCCCCC[C@@H](COP(=O)(O)OC[C@@]1(C#N)O[C@@H](c2ccc3c(N)ncnn23)[C@H](O)[C@@H]1O)Oc1cc(F)cc(C#N)c1` [Compound 96, ((2R,3S,4R,5S)-5-(4-aminopyrrolo[2,1-f][1,2,4]triazin-7-yl)-2-cyano-3,4-dihydroxytetrahydrofuran-2-yl)methyl ((S)-2-(3-cyano-5-fluorophenoxy)icosyl) hydrogen phosphate]: the values for the EC50 in series [1] and in series [2] were 67 nM and 368 nM, respectively. The CC50 at 3 days in series [3] was 5240 nM; in series [4] it was greater than 38100 nM.
As for `CCCCCCCCCCCCC[C@@H](COP(=O)(O)OC[C@@]1(C#N)O[C@@H](c2ccc3c(N)ncnn23)[C@H](O)[C@@H]1O)OCc1cc(F)cc(C#N)c1` [Compound 97, ((2R,3S,4R,5S)-5-(4-aminopyrrolo[2,1-f][1,2,4]triazin-7-yl)-2-cyano-3,4-dihydroxytetrahydrofuran-2-yl)methyl ((S)-2-((3-cyano-5-fluorobenzyl)oxy)pentadecyl) hydrogen phosphate], the values for the EC50 in series [1] and in series [2] were 45 nM and 1490 nM, respectively. For the same compound, the CC50 at 3 days was 3910 nM in series [3] (NHBE cells, 384-well, read-out: RSV NHBE CC50 384 V2 (nM) (per Ex. U)) and greater than 43900 nM in series [4] (HEp-2 cells, 384-well, read-out: RSV HEP2-CC50-384-V2 (nM) (per Ex. V)).
